One assay has as its system GFP-HDAC4 in VSMCs. Put plainly: GFP-HDAC4 cytoplasmic/nuclear localization in transfected VSMCs (CellProfiler scoring). The note with it: for cytoplasmic localization of HDAC4: VSMCs transfected with wild type GFP-HDAC4, vehicle 96.8%; for effect on HDAC4 location (nuclear accumulation / shuttling): VSMCs transfected with GFP-HDAC4. It counts as cell-based, mouse. On the procedure:
(§1) Mouse aortic smooth muscle cells were purchased from ATCC (CRL-2797) and grown in DMEM supplemented with 10% FBS. 10 mmol/L beta-glycerophosphate (Sigma-Aldrich) and 0.2 mmol/L 2-Phospho-L-ascorbic acid (Sigma-Aldrich) were added to the growth media for 3-14 days to induce calcification (HPM). All cultured cells were maintained at 37° C. with 5% CO2.
Cell were transfected with pEGFP-HDAC4, pEGFP-HDAC4 3SA, pcDNA HDAC4-flag that were a gift from Tso-Pang Yao (Addgene plasmid #45636, #45637, #30485) [Cohen T. J. et al., The histone deacetylase HDAC4 connects neural activity to muscle transcriptional reprogramming. J Biol Chem 2007, 282, 33752-33759] or pEGFP-HDAC4 3-625 plasmid. Mouse ENIGMA (Pdlim7) or truncation mutants were cloned to pcDNA-3HA backbone plasmid. Transfections were performed using polyjet reagent (signaGen) according to manufacturer's instructions. Hdac4 siRNA (IDT), ENIGMA siRNA (GE Healthcare Life Sciences Dharmacon) LKB1 siRNA (IDT) and Sun2 siRNA (IDT) were transfected to the cells using Stemfect RNA Transfection Kit (Stemgent Inc.) according to manufacturer's instructions.
The pan-SIK, inhibitors: HG-9-91-01 (ApexBio #B1052), WH-4-023 (Sigma-Aldrich), MRT67307 (Sigma-Aldrich) and the pan-PKD and CamK inhibitors: CID-2011756 (Cayman #15317), KN-93 (Sigma-Aldrich K1285), were added to the HPM at final concentrations of 0.5, 1, 2, 5 and 10 μmol/L.
For localization and co-localization assays cell were transfected with pEGFP-HDAC4 plasmids, fixed with 4% formaldehyde in PBS, and blocked in 5% FBS in PBS. Staining for ENIGMA was done with overnight incubation of an antibody recognizing Pdlim7 (ProteinTech #10221-1-AP) in 2% FBS. Cy3-conjugated AffiniPure Donkey Anti-Rabbit IgG secondary antibody (Jackson ImmunoResearch) was used for detection. Nuclei were counterstained with DAPI 1 μg/ml. Cells were imaged using Zeiss Axio observer fluorescent microscope. Cytoplasmic and nuclear localization analysis was performed automatically on acquired images using CellProfiler cell image and analysis software [Carpenter A. E. et al., CellProfiler: image analysis software for identifying and quantifying cell phenotypes. Genome Biol 2006, 7, R100].

The next assay relates to aortic rings. The experiment in a line: Aortic rings assay in HPM (qRT-PCR of osteochondrogenic markers, Von Kossa stain). Conditions: aortic rings 14 days in HPM. The format is cell-based, mouse. As for the experimental part:
Aortas were either fresh frozen in OCT sliced into section with a cryostat or fixed in 4% formaldehyde, embedded in paraffin and cut into thin sections. Slides were stained to detect calcium depositions with Alizarin red or Von Kossa stains. Alizarin red: slides were incubated in 2% alizarin red (Sigma-Aldrich) for 5 minutes at room temperature, excess stain was washed in DDW. Von Kossa: slides were incubated for 20 minutes in 5% silver nitrate (Sigma-Aldrich), washed twice in DDW, immersed in 0.5% hydroquinone (Sigma-Aldrich) for 2 minutes followed by 2 minutes of 5% sodium thiosulfate (Alfa Aesar).
Aortic rings were prepared as described [Nature protocols, Use of the mouse aortic ring assay to study angiogenesis.—PubMed—NCBI, Last updated January 2012, Accessed on January 2012]. In brief, adult C57BL/6 mice were euthanized with isoflurane; thoracic aorta was dissected, cleaned under a microscope and cut into rings. […]
RNA was extracted from cultured cell using the NucleoSpin RNA kit (MACH EREY-NAGEL). […] Quantitative real-time PCR was performed with iTaq universal SYBR green supermix (Bio-Rad) using Bio-Rad CFX96 real time system. Previous study has shown that Actb was among the most stably expressed genes in differentiating osteoblasts [Stephens A. S, et al., Internal control genes for quantitative RT-PCR expression analysis in mouse osteoblasts, osteoclasts and macrophages. […]

For the next assay, the system named is hepatocytes. Conditions: cited from earlier work.
In the next assay the test system is aortic calcification. Put plainly: Vitamin D3 induced aortic calcification in ApoE-/- mice (Von Kossa, Alizarin red). It counts as in vivo, mouse. The note with it: vitamin D3 overload, 5 mg/Kg/day IP then osmotic pump. As for the experimental part: ApoE^−/− mice were purchased from The Jackson Laboratory. All animals were housed in a temperature-controlled environment with 12 hours light/dark cycles with food and water available ad libitum. Mice were aged 8 weeks when entering the study. Aortic calcification was induced via vitamin D3 overload as previously described [Idelevich A, Rais Y, Monsonego-Ornan E (2011) Bone Gla Protein Increases HIF-1-Dependent Glucose Metabolism and Induces Cartilage and Vascular Calcification. Arterioscler Thromb Vasc Biol 31: e55-e71]. 1α,25-Dihydroxyvitamin D3 (Sigma-Aldrich) was dissolved in 100% ethanol and diluted freshly. Mice received IP injections of 1α,25-Dihydroxyvitamin D3 for six consecutive days at a final concentration of 5 μg/Kg in 5% ethanol. SIK inhibition was achieved by daily administration of HG-9-91-01 (ApexBio #B1052) in DMSO at a final concentration of 5 mg/Kg/day. Littermate ApoE−/− mice were arbitrarily divided to receive treatment or control. In the first 4 days HG-9-91-01 was injected IP and on day 5 osmotic pumps (Alzet model 1002) were implanted. Animals were monitored daily and terminated for study at day 18. Specifically, mice were sacrificed in isoflurane and aortas were collected for histology. All mice procedures were performed in accordance with institutional guidelines. […]

The subject of assay [1] is VSMCs. Put plainly: O-cresolphthalein calcium colorimetric assay of VSMCs (matrix calcification). It counts as cell-based, mouse. The note with it: VSMCs in HPM, 14 days, normalized to protein concentration. As for the experimental part: as §1
After 14 days of growth cells were washed in PBS and incubated overnight in 0.6N HCl. HCl was collected and calcium content was measured using o-cresolphthalein Calcium colorimetric assay kit (Sigma-Aldrich) according to manufacture instructions. Calcium concentration was then normalized to cells protein concentration.

For assay [2], the system named is VSMCs. The experiment in a line: qRT-PCR of osteochondrogenic markers in VSMCs. The format is cell-based, mouse. The note with it: VSMCs grown 7 days in HPM, 1 μM vs DMSO. As for the experimental part:
as §1
RNA was extracted from cultured cell using the NucleoSpin RNA kit (MACH EREY-NAGEL). The RNeasy Fibrous Tissue mini and midi kits (Qiagen) were used to extract RNA from aortic rings and human tissue (respectively). All kits were used in accordance with manufacturer protocol. Reverse transcription was done using iScript reagent (Bio-Rad). Quantitative real-time PCR was performed with iTaq universal SYBR green supermix (Bio-Rad) using Bio-Rad CFX96 real time system. Previous study has shown that Actb was among the most stably expressed genes in differentiating osteoblasts [Stephens A. S, et al., Internal control genes for quantitative RT-PCR expression analysis in mouse osteoblasts, osteoclasts and macrophages. BMC Res Notes 2011, 4, 410], and therefore expression data were normalized to the expression of Actb. For each expression analysis we used at least two different experiments, at least four biological replicates, and two technical replicates for each biological replicates for each gene. We performed a standard curve for each primer pair. […]
In general terms: In qPCR the cycle at which signal appears reflects the starting amount.

Another assay relates to bone mass. Conditions: once daily treatment; cited from earlier work.

Take `O=C(Nc1ccc(CN2CCOCC2)cc1)c1ccc(-c2cccc(Cl)c2)o1` [CID 2011756]: in the assay on GFP-HDAC4 in VSMCs (10 μmol/L), the “cytoplasmic localization of HDAC4” value is given as 99.6%. Besides, in the assay on GFP-HDAC4 in VSMCs, the “effect on HDAC4 location (nuclear accumulation / shuttling)” value is reported as “did not significantly affect the location of HDAC4”.
On to `COc1ccc(N(C(=O)Nc2c(C)cccc2C)c2cc(Nc3ccc(N4CCN(C)CC4)cc3)ncn2)c(OC)c1` [HG-9-91-01], for which the “matrix calcification (Von Kossa stain)” value in the assay on aortic rings is reported as “blunted”. For the same compound, the “upregulation of the osteochondrogenic genes” value in the assay with aortic rings (1 μM vs DMSO) is listed as “blunted”; in the assay on VSMCs [2], “blunted the upregulation of the osteochondrogenic genes”. Also, the “gluconeogenic gene expression and glucose production” value with hepatocytes was “enhanced gluconeogenic gene expression and glucose production in hepatocytes”. The “development of aortic medial calcifications” value with aortic calcification is on record as “markedly blunted the development of these calcifications”. Also, in the assay on VSMCs [1], the “matrix calcification (matrix calcium)” value was “blunted”. Further, the “cytoplasmic localization of HDAC4” value with GFP-HDAC4 in VSMCs (0.5 μmol/L) is listed as 97.4%; with GFP-HDAC4 in VSMCs (2 μmol/L) it was 75.7%; in the assay with GFP-HDAC4 in VSMCs (10 μmol/L), 14.4%. In addition, in the assay on GFP-HDAC4 in VSMCs, the “effect on HDAC4 location (nuclear accumulation / shuttling)” value was “induced nuclear import of HDAC4 in a dose dependent manner”.
Regarding `COc1ccc(S(=O)(=O)N(CCO)c2ccccc2CN(C)C/C=C/c2ccc(Cl)cc2)cc1` [KN-93], the “cytoplasmic localization of HDAC4” value with GFP-HDAC4 in VSMCs (10 μmol/L) amounted to 91.6%. Further, the “effect on HDAC4 location (nuclear accumulation / shuttling)” value with GFP-HDAC4 in VSMCs is listed as “did not significantly affect the location of HDAC4”.
As to `CCC(=C/[C@H](C)C/C=C/C(C)=C/[C@@H](C)C(=O)[C@@H](C)[C@H](O)[C@@H](C)C/C(C)=C/C(=O)O)/C=C/[C@@H]1OC(=O)C=C[C@@H]1C` [Leptomycin B, leptomycin B], the “effect on HDAC4 location (nuclear accumulation / shuttling)” value in the assay with GFP-HDAC4 in VSMCs was “induced nuclear accumulation of GFP-HDAC4”.
As to `O=C(NCCCNc1nc(Nc2cccc(CN3CCOCC3)c2)ncc1C1CC1)C1CCC1` [MRT67307], the “effect on HDAC4 location (nuclear accumulation / shuttling)” value in the assay with GFP-HDAC4 in VSMCs is “induced the shuttling of HDAC4 to the nucleus”.
Still for that read-out and setting: the same measure for `COc1ccc(N(C(=O)Oc2c(C)cccc2C)c2ccnc(Nc3ccc(N4CCN(C)CC4)cc3)n2)c(OC)c1` [WH-4-023]: “induced the shuttling of HDAC4 to the nucleus”.
Consider `COc1ccc(N2C(=O)N(c3c(C)cccc3Cl)Cc3cnc(Nc4ccc(C5CCN(C)CC5)cc4OC)nc32)nc1` [YKL-05-099], for which the “skeletal effects / bone mass” value in the assay on bone mass was “mimic skeletal effects of PTH and increase bone mass”.

Values taken from patent US11060092B2, “Inhibitors of cytoplasmic histone deacetylase 4 complex for treating or preventing vascular or valve calcification” (TECHNION RESEARCH AND DEVELOPMENT FOUNDATION LTD., priority 2016, dated 2021).
